Results as given in ChEMBL document CHEMBL4828758, “Elucidation of Distinct Modular Assemblies of Smoothened Receptor by Bitopic Ligand Measurement” (J Med Chem, 2021).
One block for each compound: values may come before it. The source made the active and inactive calls. No cut-off for these calls is given here.

How the values were obtained:
Assay type in all cases: functional, cell-based
[1] = biological target: Protein smoothened (Mus musculus) (UniProt P56726); test: (§1) Agonist activity at SMO in mouse NIH3T3 cells incubated for 2 hrs by Bright-Glo luciferase assay
Chain of Protein smoothened (Mus musculus) (P56726 whole entry): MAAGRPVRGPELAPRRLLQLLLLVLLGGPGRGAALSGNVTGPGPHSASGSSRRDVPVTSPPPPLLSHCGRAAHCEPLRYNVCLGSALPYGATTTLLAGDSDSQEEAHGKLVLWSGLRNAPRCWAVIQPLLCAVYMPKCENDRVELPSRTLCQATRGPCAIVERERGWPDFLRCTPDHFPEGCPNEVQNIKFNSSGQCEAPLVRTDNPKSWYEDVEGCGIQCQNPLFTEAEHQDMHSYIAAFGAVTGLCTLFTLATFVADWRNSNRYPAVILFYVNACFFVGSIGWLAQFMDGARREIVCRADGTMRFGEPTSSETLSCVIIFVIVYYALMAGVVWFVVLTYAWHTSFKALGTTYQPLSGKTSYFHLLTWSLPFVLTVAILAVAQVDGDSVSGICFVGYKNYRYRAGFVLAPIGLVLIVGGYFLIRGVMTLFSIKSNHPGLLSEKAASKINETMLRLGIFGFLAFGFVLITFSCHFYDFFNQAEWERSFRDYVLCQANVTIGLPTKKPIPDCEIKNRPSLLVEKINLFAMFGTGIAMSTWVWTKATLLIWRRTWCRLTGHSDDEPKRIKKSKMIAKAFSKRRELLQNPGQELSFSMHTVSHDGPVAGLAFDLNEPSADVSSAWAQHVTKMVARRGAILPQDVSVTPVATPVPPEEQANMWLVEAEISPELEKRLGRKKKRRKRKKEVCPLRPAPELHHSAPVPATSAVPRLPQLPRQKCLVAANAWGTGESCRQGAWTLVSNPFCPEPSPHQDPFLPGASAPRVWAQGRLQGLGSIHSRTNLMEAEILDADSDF

Protein smoothened [2] = biological target: T1, Protein smoothened (Mus musculus, UniProt P56726); test: as §1
T1 sequence (P56726 whole entry): as above

[3] = biological target: Protein smoothened (Mus musculus) (UniProt P56726); test: Agonist activity at SMO in mouse NIH3T3 cells assessed as induction of SMO accumulation in primary cilia incubated for 12 hrs by fluorescence method; conditions: filed as agonist
[4] = biological target: Protein smoothened (Mus musculus) (UniProt P56726); test: Agonist activity at SMO in mouse NIH3T3 cells assessed as induction of SMO accumulation in primary cilia incubated for 12 hrs by AlexaFluor 488/ DAPI staining based immunofluorescence method
[5] = biological target: Protein smoothened (Mus musculus) (UniProt P56726); test: Agonist activity at SMO in mouse NIH3T3 cells assessed as fluorescent intensity of ciliary SMO incubated for 12 hrs by fluorescence method; conditions: filed as agonist
Protein smoothened [6] = biological target: T1, Protein smoothened; test: Antagonist activity at SMO in mouse NIH3T3 cells preincubated for 2 hrs followed by SAG stimulation and measured after 24 hrs by Bright-Glo luciferase assay

Activity [1]: inactive
SMILES: CN[C@H]1CC[C@H](N(Cc2cccc(-c3ccnc(OCCOCCOCCOCCn4cc(COCCOCCOCCOCCOCCOCCOCCCCCC[C@](C)(O)C5CC[C@H]6[C@@H]7CC=C8C[C@@H](O)CC[C@]8(C)[C@H]7CC[C@]56C)nn4)c3)c2)C(=O)c2sc3ccccc3c2Cl)CC1 (stereo partly specified)

EC50 (Protein smoothened [2]): 8 nM
SMILES: CN[C@H]1CC[C@H](N(Cc2cccc(-c3ccnc(OCCOCCOCCn4cc(COCCCCCCC(C)(O)C5CC[C@H]6[C@@H]7CC=C8C[C@@H](O)CC[C@]8(C)[C@H]7CC[C@]56C)nn4)c3)c2)C(=O)c2sc3ccccc3c2Cl)CC1 (stereo partly specified)

Activity [3]: Active
Activity ([4]; filed as agonist): Active
Activity [5]: Active
SMILES: CN[C@H]1CC[C@H](N(Cc2cccc(-c3ccnc(OCCOCCOCCOCCn4cc(COCCOCCOCC(=O)N5C[C@@H](C)C[C@H]6O[C@]7(CC[C@@H]8C(=C7C)C[C@H]7[C@H]8CC=C8C[C@@H](O)CC[C@@]87C)[C@H](C)[C@@H]65)nn4)c3)c2)C(=O)c2sc3ccccc3c2Cl)CC1

Activity [3]: Active
Activity ([4]; filed as agonist): Active
Activity [5]: Active
SMILES: CN[C@H]1CC[C@H](N(Cc2cccc(-c3ccnc(OCCOCCOCCOCCn4cc(COCCOCCC#CCCC(C)(O)C5CC[C@H]6[C@@H]7CC=C8C[C@@H](O)CC[C@]8(C)[C@H]7CC[C@]56C)nn4)c3)c2)C(=O)c2sc3ccccc3c2Cl)CC1 (stereo partly specified)

Activity [1]: inactive
SMILES: CN[C@H]1CC[C@H](N(Cc2cccc(-c3ccnc(OCCOCCOCCOCCn4cc(COCCOCCOCCOCCCCCC[C@](C)(O)C5CC[C@H]6[C@@H]7CC=C8C[C@@H](O)CC[C@]8(C)[C@H]7CC[C@]56C)nn4)c3)c2)C(=O)c2sc3ccccc3c2Cl)CC1 (stereo partly specified)

Activity [1]: inactive
SMILES: CN[C@H]1CC[C@H](N(Cc2cccc(-c3ccnc(OCCOCCOCCOCCn4cc(COCCOCCOCCOCCOCCOCCCCCC[C@](C)(O)C5CC[C@H]6[C@@H]7CC=C8C[C@@H](O)CC[C@]8(C)[C@H]7CC[C@]56C)nn4)c3)c2)C(=O)c2sc3ccccc3c2Cl)CC1 (stereo partly specified)

EC50 (Protein smoothened [2]): 200 nM
SMILES: CN[C@H]1CC[C@H](N(Cc2cccc(-c3ccnc(OCCOCCOCCOCCn4cc(COCCOCCOCCOCCOCCOCCOCCCCCC[C@@H](C)C5CC[C@H]6[C@@H]7CC=C8C[C@@H](O)CC[C@]8(C)[C@H]7CC[C@]56C)nn4)c3)c2)C(=O)c2sc3ccccc3c2Cl)CC1 (stereo partly specified)

Activity [3]: Active
Activity ([4]; filed as agonist): Active
EC50 (Protein smoothened [2]): 200 nM
Activity [5]: Active
SMILES: CN[C@H]1CC[C@H](N(Cc2cccc(-c3ccnc(OCCOCCOCCOCCn4cc(COCCOCCCCCC[C@@H](C)C5CC[C@H]6[C@@H]7CC=C8C[C@@H](O)CC[C@]8(C)[C@H]7CC[C@]56C)nn4)c3)c2)C(=O)c2sc3ccccc3c2Cl)CC1 (stereo partly specified)

EC50 (Protein smoothened [2]): 8 nM
SMILES: CN[C@H]1CC[C@H](N(Cc2cccc(-c3ccnc(OCCOCCOCCOCCn4cc(COCCOCCOCCCCCC[C@](C)(O)C5CC[C@H]6[C@@H]7CC=C8C[C@@H](O)CC[C@]8(C)[C@H]7CC[C@]56C)nn4)c3)c2)C(=O)c2sc3ccccc3c2Cl)CC1 (stereo partly specified)

Activity [1]: inactive
SMILES: CN[C@H]1CC[C@H](N(Cc2cccc(-c3ccnc(OCCOCCOCCOCCn4cc(COCCOCCOCCOCCOCCCCCC[C@](C)(O)C5CC[C@H]6[C@@H]7CC=C8C[C@@H](O)CC[C@]8(C)[C@H]7CC[C@]56C)nn4)c3)c2)C(=O)c2sc3ccccc3c2Cl)CC1 (stereo partly specified)

EC50 (Protein smoothened [2]): 200 nM
SMILES: CN[C@H]1CC[C@H](N(Cc2cccc(-c3ccnc(OCCOCCOCCOCCOCCOCCn4cc(COCCOCCOCCOCCOCCOCCOCCCCCC[C@@H](C)C5CC[C@H]6[C@@H]7CC=C8C[C@@H](O)CC[C@]8(C)[C@H]7CC[C@]56C)nn4)c3)c2)C(=O)c2sc3ccccc3c2Cl)CC1 (stereo partly specified)

EC50 (Protein smoothened [2]): 200 nM
SMILES: CN[C@H]1CC[C@H](N(Cc2cccc(-c3ccnc(OCCOCCOCCOCCn4cc(COCCOCCOCCOCCCCCC[C@@H](C)C5CC[C@H]6[C@@H]7CC=C8C[C@@H](O)CC[C@]8(C)[C@H]7CC[C@]56C)nn4)c3)c2)C(=O)c2sc3ccccc3c2Cl)CC1 (stereo partly specified)

Activity [1]: inactive
SMILES: CN[C@H]1CC[C@H](N(Cc2cccc(-c3ccnc(OCCOCCn4cc(COCCCCCC[C@](C)(O)[C@H]5CC[C@H]6[C@@H]7CC=C8C[C@@H](O)CC[C@]8(C)[C@H]7CC[C@@]65C)nn4)c3)c2)C(=O)c2sc3ccccc3c2Cl)CC1

Activity [3]: Active
Activity ([4]; filed as agonist): Active
Activity [1]: inactive
Activity [5]: Active
SMILES: CN[C@H]1CC[C@H](N(Cc2cccc(-c3ccnc(OCCOCCOCCOCCn4cc(COCCOCCCCCC[C@](C)(O)C5CC[C@H]6[C@@H]7CC=C8C[C@@H](O)CC[C@]8(C)[C@H]7CC[C@]56C)nn4)c3)c2)C(=O)c2sc3ccccc3c2Cl)CC1 (stereo partly specified)

EC50 (Protein smoothened [2]): 8 nM
SMILES: CN[C@H]1CC[C@H](N(Cc2cccc(-c3ccnc(OCCOCCOCCOCCn4cc(COCCCCCC[C@](C)(O)C5CC[C@H]6[C@@H]7CC=C8C[C@@H](O)CC[C@]8(C)[C@H]7CC[C@]56C)nn4)c3)c2)C(=O)c2sc3ccccc3c2Cl)CC1 (stereo partly specified)

Activity [1]: inactive
SMILES: CN[C@H]1CC[C@H](N(Cc2cccc(-c3ccnc(OCCOCCOCCOCCOCCn4cc(COCCOCCOCCOCCOCCOCCOCCCCCCC(C)(O)C5CC[C@H]6[C@@H]7CC=C8C[C@@H](O)CC[C@]8(C)[C@H]7CC[C@]56C)nn4)c3)c2)C(=O)c2sc3ccccc3c2Cl)CC1 (stereo partly specified)

Continued, compound first:

SMILES: CC(O)(CCCCCCOCCOCc1cn(CCOCCOCCOCCO)nn1)C1CC[C@H]2[C@@H]3CC=C4C[C@@H](O)CC[C@]4(C)[C@H]3CC[C@]12C (stereo partly specified)
EC50 (Protein smoothened [2]): > 100000 nM

SMILES: CC(O)(CCCCCCOCCOCc1cn(CCOCCOCCS(=O)(=O)c2ccc(C(=O)Nc3ccc(Cl)c(-c4ccccn4)c3)c(Cl)c2)nn1)C1CC[C@H]2[C@@H]3CC=C4C[C@@H](O)CC[C@]4(C)[C@H]3CC[C@]12C (stereo partly specified)
IC50 (Protein smoothened [6]): 20 nM

SMILES: CN[C@H]1CC[C@H](N(Cc2cccc(-c3ccnc(OCCOCCOCCOCCOCCOCCn4cc(COCCOCCOCCOCCOCCOCCOCCOCCCCCC[C@@H](C)C5CC[C@H]6[C@@H]7CC=C8C[C@@H](O)CC[C@]8(C)[C@H]7CC[C@]56C)nn4)c3)c2)C(=O)c2sc3ccccc3c2Cl)CC1 (stereo partly specified)
EC50 (Protein smoothened [2]): 200 nM

SMILES: CN[C@H]1CC[C@H](N(Cc2cccc(-c3ccnc(OCCn4cc(COCCCCCCC[C@](C)(O)[C@H]5CC[C@H]6[C@@H]7CC=C8C[C@@H](O)CC[C@]8(C)[C@H]7CC[C@@]65C)nn4)c3)c2)C(=O)c2sc3ccccc3c2Cl)CC1
Activity [1]: inactive

SMILES: CC(O)(CCCCCCOCCOCc1cn(CCOCCOCCOCCOCCOCCS(=O)(=O)c2ccc(C(=O)Nc3ccc(Cl)c(-c4ccccn4)c3)c(Cl)c2)nn1)C1CC[C@H]2[C@@H]3CC=C4C[C@@H](O)CC[C@]4(C)[C@H]3CC[C@]12C (stereo partly specified)
Activity [4]: inactive
IC50 (Protein smoothened [6]): 20 nM
Activity [1]: inactive

SMILES: CN[C@H]1CC[C@H](N(Cc2cccc(-c3ccnc(OCCOCCOCCOCCn4cc(COCCO)nn4)c3)c2)C(=O)c2sc3ccccc3c2Cl)CC1
EC50 (Protein smoothened [2]): 966 nM

SMILES: CC1=C2C[C@H]3[C@@H](CC=C4C[C@@H](O)CC[C@@]43C)[C@@H]2CC[C@]12O[C@@H]1C[C@H](C)CN[C@H]1[C@H]2C
Activity [3]: Active
Activity [5]: Active

SMILES: CN[C@H]1CC[C@H](N(Cc2cccc(-c3ccnc(OCCOCCOCCOCCOCCOCCn4cc(COCCOCCOCCOCCOCCOCCOCCCCCCC(C)(O)C5CC[C@H]6[C@@H]7CC=C8C[C@@H](O)CC[C@]8(C)[C@H]7CC[C@]56C)nn4)c3)c2)C(=O)c2sc3ccccc3c2Cl)CC1 (stereo partly specified)
Activity [1]: inactive

SMILES: CN[C@H]1CC[C@H](N(Cc2cccc(-c3ccnc(OC)c3)c2)C(=O)c2sc3ccccc3c2Cl)CC1
EC50 (Protein smoothened [2]): 819 nM

SMILES: CC(O)(CCCCCCOCCOCCOCCOCCOCc1cn(CCOCCOCCOCCOCCOCCS(=O)(=O)c2ccc(C(=O)Nc3ccc(Cl)c(-c4ccccn4)c3)c(Cl)c2)nn1)C1CC[C@H]2[C@@H]3CC=C4C[C@@H](O)CC[C@]4(C)[C@H]3CC[C@]12C (stereo partly specified)
IC50 (Protein smoothened [6]): 20 nM

SMILES: CC(O)(CCCCCCOCCOCCOCc1cn(CCOCCOCCOCCOCCOCCS(=O)(=O)c2ccc(C(=O)Nc3ccc(Cl)c(-c4ccccn4)c3)c(Cl)c2)nn1)C1CC[C@H]2[C@@H]3CC=C4C[C@@H](O)CC[C@]4(C)[C@H]3CC[C@]12C (stereo partly specified)
IC50 (Protein smoothened [6]): 20 nM

SMILES: CC(O)(CCCCCCO)C1CC[C@H]2[C@@H]3CC=C4C[C@@H](O)CC[C@]4(C)[C@H]3CC[C@]12C (stereo partly specified)
EC50 (Protein smoothened [2]): > 100000 nM

SMILES: [N-]=[N+]=NCCOCCOCCOCCOCCOCCS(=O)(=O)c1ccc(C(=O)Nc2ccc(Cl)c(-c3ccccn3)c2)c(Cl)c1
IC50 (Protein smoothened [6]): 3000 nM

SMILES: C[C@H](CCCCCCOCCOCc1cn(CCOCCOCCOCCOCCOCCS(=O)(=O)c2ccc(C(=O)Nc3ccc(Cl)c(-c4ccccn4)c3)c(Cl)c2)nn1)C1CC[C@H]2[C@@H]3CC=C4C[C@@H](O)CC[C@]4(C)[C@H]3CC[C@]12C (stereo partly specified)
Activity [4]: inactive

SMILES: CC(O)(CCCCCCOCCOCCOCCOCCOCCOCCOCc1cn(CCOCCOCCOCCOCCOCCS(=O)(=O)c2ccc(C(=O)Nc3ccc(Cl)c(-c4ccccn4)c3)c(Cl)c2)nn1)C1CC[C@H]2[C@@H]3CC=C4C[C@@H](O)CC[C@]4(C)[C@H]3CC[C@]12C (stereo partly specified)
IC50 (Protein smoothened [6]): 20 nM

SMILES: CC(O)(CCCCCCOCCOCCOCCOCCOCCOCCOCCOCCOCc1cn(CCOCCOCCOCCOCCOCCS(=O)(=O)c2ccc(C(=O)Nc3ccc(Cl)c(-c4ccccn4)c3)c(Cl)c2)nn1)C1CC[C@H]2[C@@H]3CC=C4C[C@@H](O)CC[C@]4(C)[C@H]3CC[C@]12C (stereo partly specified)
IC50 (Protein smoothened [6]): 20 nM

SMILES: CC(O)(CCCCCCOCCOCc1cn(CCOCCOCCOCCS(=O)(=O)c2ccc(C(=O)Nc3ccc(Cl)c(-c4ccccn4)c3)c(Cl)c2)nn1)C1CC[C@H]2[C@@H]3CC=C4C[C@@H](O)CC[C@]4(C)[C@H]3CC[C@]12C (stereo partly specified)
IC50 (Protein smoothened [6]): 20 nM

SMILES: CC(O)(CCCCCCOCCOCc1cn(CCOCCOCCOCCOCCS(=O)(=O)c2ccc(C(=O)Nc3ccc(Cl)c(-c4ccccn4)c3)c(Cl)c2)nn1)C1CC[C@H]2[C@@H]3CC=C4C[C@@H](O)CC[C@]4(C)[C@H]3CC[C@]12C (stereo partly specified)
IC50 (Protein smoothened [6]): 20 nM

SMILES: CN[C@H]1CC[C@H](N(Cc2cccc(-c3ccncc3)c2)C(=O)c2sc3ccccc3c2Cl)CC1
Activity [3]: Active
EC50 (Protein smoothened [2]): 16.9 nM
Activity [5]: Active

SMILES: CN[C@H]1CC[C@H](N(Cc2cccc(-c3ccnc(OCCOCCOCCOCCOCCOCCn4cc(COCCOCCOCCOCCOCCOCCOCCOCCOCCCCCC[C@@H](C)C5CC[C@H]6[C@@H]7CC=C8C[C@@H](O)CC[C@]8(C)[C@H]7CC[C@]56C)nn4)c3)c2)C(=O)c2sc3ccccc3c2Cl)CC1 (stereo partly specified)
EC50 (Protein smoothened [2]): 200 nM
